Among the data in a melting point compilation (Tetko et al.; mined from patent text by program, amines drawn as free bases though some values may be those of a salt) are melting point values, retold here.

For orientation: melting point means the temperature of the solid-liquid transition. `CN(C)c1nc(Br)cnc1NS(=O)(=O)c1cccc2c(N(C)C)cccc12`: the melting point lay within 180 to 182 °C.
As for `O=Cc1cccc(OCCn2ncc3ccccc3c2=O)c1`, the figure is 110 to 111 °C; as for `N#Cc1c(Nc2c(F)cccc2F)cccc1Oc1ccccc1`, 150 to 153 °C; as for `C#CCNC(=O)N1CC(Oc2cccc(C(F)(F)F)c2)C1`, 105 to 106 °C.
With `CN(C)CC1COC2(CCN(c3nc4c(cc3F)C=C(C(=O)O)CN4c3ccc(F)cc3F)C2)O1` (configuration not stated), the melting point was in the range of 154 to 155 °C.
With `N#Cc1cnc2c(Br)csc2c1Cl`, the melting point is 176 to 178 °C.
As to `C[C@H](NC(=O)OC(C)(C)C)[C@@H]1CCN(c2nc3c(cc2F)c(=O)[nH]c(=O)n3C2CC2)C1`, the melting point is 249 to 251 °C.
`Cc1ccn2nc(S(=O)(=O)N(C(=O)c3ccccc3)c3c(Cl)cccc3Cl)nc2n1` registered a melting point of 187 to 189 °C.
As for `COc1ccc(Oc2cccc(Cl)n2)cc1`, the figure is 63 to 65 °C.
In turn, `Cc1cccc(CC(N)(CF)C(=O)O)c1O` (configuration not stated) registered a melting point of 168 °C.
As for `CCOC(=O)C1=C(C(F)(F)F)COc2ccc3ccccc3c21`, the figure is 246 to 249 °C; as for `COc1cccc(C(O)CNCCc2ccc(OC)c(OC)c2Cl)c1` (configuration not stated), 95.5 to 96.5 °C.
Consider `Cc1ccc(S(=O)(=O)NCCOS(=O)(=O)c2ccc(C)cc2)cc1`, for which the melting point is 89 to 90 °C.
The compound `COC(=O)C1Cc2cc(OC)ccc2N1S(=O)(=O)c1ccc(I)cc1` (configuration not stated) came in with a melting point of 154 °C.
The compound `CC1CC(=O)NN=C1c1ccc(NC(=NC#N)NCc2ccccn2)cc1` (configuration not stated) came in with a melting point of 212 to 214 °C.
On to `CN1C(=O)C(c2ccc(OC(F)F)cc2)(c2cccc(C3CC(=O)C3(C)C)c2)N=C1N` (configuration not stated), for which the melting point was in the range of 172 to 174 °C.
In turn, `CCCNc1ccc(NC(=O)c2ccc(NC(=O)c3ccc(NCCC)nc3)nc2)nc1` gave a melting point of 249 to 250 °C.
As for `O=C(O)COc1ccc2c(-c3ccccn3)noc2c1Cl`, the figure is 255 to 256 °C; as for `O=C(O)Cc1ccc2c(c1)CCc1ccccc1O2`, 135 to 137 °C.
As for `COc1cc(CC(=O)Nc2ccc(C3CN(Cc4ccccc4)CC3C(=O)O)cc2)ccc1NC(=O)Nc1ccccc1C` (configuration not stated), the figure is 255 °C.
The value for `CCCC1=C(C#N)C(c2cccc(C(F)(F)F)c2Cl)c2c[nH]nc2N1` (configuration not stated) was more than 250 °C; that for `Cc1cnc2c(NC(=O)c3c(Cl)cccc3Cl)ccc(C)c2c1N1CCN(C)C1=O` was more than 300 °C; that for `CCCCCCCN1CCCc2cccc(O)c21` was 33 to 34 °C.
`Nc1ncnc2c1sc(=O)n2C1OC(CO)C(O)C1O` (configuration not stated): the melting point lay within 248 to 250 °C.
As for `Cn1cnc2cc(C(=O)NC3CC3)c(NC(=O)c3cc(C(F)(F)F)nn3-c3ncccc3Cl)c(Cl)c21`, the figure is 148 to 151 °C; as for `O=C(CCl)Nc1ccc2c(c1)C(=O)c1cc(NC(=O)CCl)ccc1C2=O`, 286 °C; as for `CCN1CCC(O)(c2cccc(F)c2F)C1` (configuration not stated), 119 to 120 °C.
As for `NC(=O)N(O)CCOc1ccc2c(c1)CCN(CCCc1ccc(F)cc1)C2=O`, the figure is 138 to 140 °C; as for `COc1cnc(C(=O)O)cc1Cl`, 209 °C.
As for `CC(C)C(NC(=O)c1ccc(C(=O)NCc2ccc(N)cc2)cc1)C(=O)N1CCCC1C(=O)NC(C(=O)C(F)(F)F)C(C)C` (mixture of isomers), the figure is 90 to 92 °C; as for `CC(=O)c1ccc2c(c1)C(C(Cl)(Cl)Cl)OC(C(Cl)(Cl)Cl)O2` (configuration not stated), 104 to 105 °C.
Regarding `O=C(c1ccc(Cn2ccc3ccccc32)cc1)N1CCC(N2CCCC2)C1` (configuration not stated), the melting point fell in the range of 141 to 153 °C.
As for `CCCCc1nn(-c2ccccc2C(F)(F)F)c(=O)n1Cc1ccc(-c2ccccc2S(=O)(=O)NC(=O)C2CC2)cc1`, the figure is 187 to 189 °C.
The value for `CC1(C)CCc2ncc([N+](=O)[O-])cc2C1` was 99 to 101 °C.
The value for `CN(CCc1ccccc1)C(=O)Cn1cc(C(=O)O)c2cc(OCc3ccccc3)ccc21` was 182 to 185 °C; that for `COc1ccc(-c2ccc3c(F)c(OC)ccc3c2)cc1` was 150 to 155 °C; that for `CCOC(=O)c1[nH]cc(Cc2cccc(F)c2C)c1-c1ccccc1` was 120 to 122 °C.
Compound `Cc1ccc([N+](=O)[O-])c(C(O)=S)c1` displayed a melting point of 165 to 169 °C.
The value for `COc1ccc(C(=C/C=C/C(=O)NCCCCc2cncc3ccccc23)c2ccc(OC)cc2)cc1` was 91 to 93 °C; that for `N#CCCn1nc2ccc(Cl)nn2c1=O` was 166 to 168 °C; that for `N#CC=Cc1ccc(Br)cc1` was 106 °C.
`CN(C)c1ccc(C(=O)NC2CCN(C(c3ccccc3)c3ccccc3)CC2)c(N)c1` gave a melting point of 118 °C.
Turning to `COc1ccc(-c2ccc(Cl)cc2)cc1COc1cccc2cc(NS(=O)(=O)C(F)(F)F)ccc12`, the melting point was in the range of 155 to 157 °C.
In turn, `CC(C)OC(=O)Nc1ccc(NC=O)c([N+](=O)[O-])c1` displayed a melting point of 168 to 170 °C.
`O=[N+]([O-])c1ccc(/C=C/c2ccc(Cl)c(C(F)(F)F)c2)cc1` had a melting point of 173 to 174 °C.
As for `CCNC(=O)Nc1nc2cc(-c3cccnc3)cc(-c3ccc(C)cn3)c2s1`, the figure is 231 °C; as for `Oc1ccc(N2CCN(c3ccc(C(F)(F)F)cn3)CC2)cc1`, 178 to 179 °C; as for `CCOC(=O)CNC(=O)c1ccc(-c2ccc([N+](=O)[O-])cc2)cc1`, 145 to 148 °C.
For the compound `C=C(c1ccsc1C(=O)O)c1cc(C(C)(C)C)cc2c1CCC2(C)C`, the melting point is 146 to 148 °C.
As for `COCc1c(C=O)ncc2c1c1c(OCc3ccccc3)cccc1n2CC(=O)N(C)CCc1ccccc1`, the melting point lay in the range of 192 to 197 °C.
Compound `CN(C)C(=O)n1nc(C(C)(C)C)cc1S(C)(=O)=O` registered a melting point of 126 to 128 °C.
The value for `CCOC(=O)Cc1ccc(NC(=O)Nc2ccccc2C(F)(F)F)cc1` was 137 to 139 °C.
In the case of `CCOC(=O)C(Cl)=NNc1ccccc1Br`, the melting point came out at 106 °C.
Compound `O=C(O)c1cn(C2CC2)c2c(F)c(N3CCC(CNCCF)C3)c(F)cc2c1=O` (configuration not stated) came in with a melting point of 134 to 138 °C.
The value for `COc1nc(O)cc(CCl)n1` was 154 to 155 °C; that for `COC1C(=O)N=C(NC(=O)Nc2cccc(Cl)c2)N1C` (configuration not stated) was 147 to 149 °C; that for `CCCc1c(OCCCOc2ccc(C(=O)CCC(=O)O)c(Cl)c2)ccc(C(C)=O)c1O` was 143 to 144 °C.
The value for `CCOC(=O)C(Cc1cccc2cccnc12)(NC(=O)CC)C(=O)OCC` was 80 to 100 °C; that for `CCC(C)(C)c1ccc2oc(-c3ccc(O)cc3)nc2c1` was 236 to 237 °C.
Compound `N#Cc1ccc(-c2nc(=O)c3ccccc3s2)cc1` displayed a melting point of 241 °C.
`CC(=O)N1CCN(CC(=O)Nc2nc(-c3ccccc3)c(-c3ccc(=O)n(C(C)C)n3)s2)CC1` displayed a melting point of 220 to 222 °C.
As for `CCCCn1c(=O)c2cn(S(C)(=O)=O)nc2n(CCCC)c1=O`, the figure is 103 to 104 °C.
